Results as given in US8329645B2, “Polymyxin derivatives and uses thereof” (priority 2008, dated 2012).

What was measured:
[1] = system: Ac. baumannii F263; test: E-test MIC with or without NAB7061 (4 μg/ml), Mueller-Hinton agar; assay type: cell-based, Acinetobacter baumannii; conditions: Ac. baumannii F263
Description: (§1) MICs were determined by using E-strips (Biodisk Ltd., Solna, Sweden) according to the manufacturer's instructions.
(§2) The strains originated from ATCC (11 strains), CCUG (11 strains), and NCTC (The National Collection of Type Cultures, Colindale, U.K.; 2 strains). Eight strains (the F-strains) were purchased from Mobidiag Ltd., Helsinki, Finland.

[2] = system: Ac. baumannii F264; test: as above; assay type: cell-based, Acinetobacter baumannii; conditions: Ac. baumannii F264
Description: as §1, §2

[3] = system: Ac. baumannii ATCC19606; test: as above; assay type: cell-based, Acinetobacter baumannii; conditions: Ac. baumannii ATCC19606
Description: as §1, §2

[4] = system: E. coli CCUG41424; test: as above; assay type: cell-based, Escherichia coli
How it was run: (§3)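 E-strip MIC determination, run as instructed by the manufacturer.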

[5] = system: E. coli CCUG41422; test: as above; assay type: cell-based, Escherichia coli
How it was run: as §3

[6] = system: E. coli CCUG41429; test: as above; assay type: cell-based, Escherichia coli
How it was run: as §3

[7] = system: E. coli CCUG41432; test: as above; assay type: cell-based, Escherichia coli
How it was run: as §3

[8] = system: E. coli NCTC13353; test: as above; assay type: cell-based, Escherichia coli
How it was run: as §3

[9] = system: E. coli NCTC13351; test: as above; assay type: cell-based, Escherichia coli
How it was run: as §3

[10] = system: E. coli IH3080; test: as above; assay type: cell-based, Escherichia coli
How it was run: as §3

[11] = system: E. coli CCUG41421; test: as above; assay type: cell-based, Escherichia coli
How it was run: as §3

[12] = system: E. coli CCUG41427; test: as above; assay type: cell-based, Escherichia coli
How it was run: as §3

[13] = system: E. coli CCUG41425; test: as above; assay type: cell-based, Escherichia coli
How it was run: as §3

[14] = system: E. cloacae F232; test: as above; assay type: cell-based, Enterobacter cloacae
How it was run: as §3

[15] = system: E. cloacae ATCC23355; test: as above; assay type: cell-based, Enterobacter cloacae
How it was run: as §3

[16] = system: E. cloacae F230; test: as above; assay type: cell-based, Enterobacter cloacae
How it was run: as §3

[17] = system: E. cloacae CCUG52947; test: as above; assay type: cell-based, Enterobacter cloacae
How it was run: as §3

[18] = system: P. aeruginosa CCUG51971; test: as above; assay type: cell-based, Pseudomonas aeruginosa
Description: as §1, §2

[19] = system: P. aeruginosa ATCC27853; test: as above; assay type: cell-based, Pseudomonas aeruginosa
Description: as §1, §2

[20] = system: three strains of A. baumannii; test: E-test sensitization by NAB7061, summary over strains; assay type: cell-based; conditions: Acinetobacter baumannii, read-out: resulting MIC values in the presence of NAB7061 (4 μg/ml)
From the text: as §2

[21] = system: S. marcescens ATCC8100; test: E-test MIC with or without NAB7061 (4 μg/ml), Mueller-Hinton agar; assay type: cell-based, Serratia marcescens
Description: as §1, §2

[22] = system: K. oxytoca CCUG51683; test: as above; assay type: cell-based, Klebsiella oxytoca
Description: as §1, §2

[23] = system: K. oxytoca ATCC13182; test: as above; assay type: cell-based, Klebsiella oxytoca
Description: as §1, §2

[24] = system: P. aeruginosa ATCC 27853; test: E-test MIC of antibiotics on Mueller Hinton agar containing increasing concentrations of NAB739; assay type: cell-based, Pseudomonas aeruginosa
[25] = system: P. vulgaris ATCC13315; test: E-test MIC with or without NAB7061 (4 μg/ml), Mueller-Hinton agar; assay type: cell-based
Description: as §1, §2

[26] = system: S. maltophilia ATCC17444; test: as above; assay type: cell-based
Description: as §1, §2

[27] = system: A. baumannii F264; test: E-test MIC of antibiotics on Mueller Hinton agar containing increasing concentrations of NAB739; assay type: cell-based, Acinetobacter baumannii
[28] = system: P. mirabilis ATCC29906; test: E-test MIC with or without NAB7061 (4 μg/ml), Mueller-Hinton agar; assay type: cell-based, Proteus mirabilis
Description: as §1, §2

[29] = system: C. freundii ATCC8090; test: as above; assay type: cell-based, Citrobacter freundii
Description: as §1, §2

[30] = system: E. coli ATCC25922; conditions: E. coli ATCC25922
How it was run: as §3

[31] = system: K. pneumoniae ATCC13883; conditions: K. pneumoniae ATCC13883
How it was run: as §3

[32] = system: K. pneumoniae F144; test: E-test MIC with or without NAB7061 (4 μg/ml), Mueller-Hinton agar; assay type: cell-based, Klebsiella pneumoniae
Description: as §1, §2

[33] = system: K. pneumoniae F145; test: as above; assay type: cell-based, Klebsiella pneumoniae
Description: as §1, §2

[34] = system: K. pneumoniae CCUG45421; test: as above; assay type: cell-based, Klebsiella pneumoniae
Description: as §1, §2

[35] = system: K. pneumoniae F136; test: as above; assay type: cell-based, Klebsiella pneumoniae
Description: as §1, §2

[36] = system: A. baumannii ATCC19606; test: E-test MIC of antibiotics on Mueller Hinton agar containing increasing concentrations of NAB739; assay type: cell-based, Acinetobacter baumannii
[37] = system: E. coli IH3080; test: Growth inhibition around wells on LB agar plates; assay type: cell-based, Escherichia coli
How it was run: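 Growth inhibition of encapsulated E. coli IH3080 (K1:O018) was assessed on LB agar plates. A suspension of about 10^8 cells/ml in 0.9% NaCl, made from an overnight LB agar culture, was spread across the plate surface and the excess removed. After drying, 2 mm wells were drilled, with 0.9% NaCl as control. Following 18 h at 37° C., inhibition zone diameters around wells were converted to areas in square mm.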

[38] = system: E. coli IH3080; test: Sensitization to rifampin: growth inhibition around wells on LB plates containing rifampin; assay type: cell-based, Escherichia coli; conditions: 4 μg of compound
[39] = system: E. coli; conditions: Sakura et al. (2004); cited from earlier work
[40] = system: Ps. aeruginosa ATCC 27853; test: Sensitization to rifampin: growth inhibition around wells on LB plates containing rifampin; assay type: cell-based, Pseudomonas aeruginosa; conditions: 4 μg
[41] = system: Pseudomonas aeruginosa ATCC 27853; test: Growth inhibition around wells on LB agar plates; assay type: cell-based; conditions: Ps. aeruginosa ATCC 27853
How it was run: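 Activity against Pseudomonas aeruginosa ATCC 27853 was assessed by agar well diffusion on LB plates. A suspension of about 10^8 cells/ml in 0.9% NaCl was spread over the agar and the excess removed. Once the surface had dried, 2 mm wells were drilled and filled with peptide dissolved in 0.9% NaCl. Plates were incubated 18 h at 37° C, and inhibition zone diameters were converted to areas in square mm.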

CC[C@H]1OC(=O)[C@H](C)[C@@H](O[C@H]2C[C@@](C)(OC)[C@@H](O)[C@H](C)O2)[C@H](C)[C@@H](O[C@@H]2O[C@H](C)C[C@H](N(C)C)[C@H]2O)[C@](C)(OC)C[C@@H](C)C(=O)[C@H](C)[C@@H](O)[C@]1(C)O [Clarithromycin]
MIC of antibiotic in the presence of 4 μg/ml of NAB 7061 [1]: 0.38 µg/mL
MIC of antibiotic in the presence of 4 μg/ml of NAB 7061 [2]: 0.25 µg/mL
MIC of antibiotic in the presence of 4 μg/ml of NAB 7061 [3]: 0.5 µg/mL
MIC of antibiotic in the presence of 4 μg/ml of NAB 7061 [4]: 0.125 µg/mL
MIC of antibiotic in the presence of 4 μg/ml of NAB 7061 [5]: 0.25 µg/mL
MIC of antibiotic in the presence of 4 μg/ml of NAB 7061 [6]: 0.064 µg/mL
MIC of antibiotic in the presence of 4 μg/ml of NAB 7061 [7]: 0.064 µg/mL
MIC of antibiotic in the presence of 4 μg/ml of NAB 7061 [8]: 1 µg/mL
MIC of antibiotic in the presence of 4 μg/ml of NAB 7061 [9]: 0.032 µg/mL
MIC of antibiotic in the presence of 4 μg/ml of NAB 7061 [10]: 0.047 to 0.064 µg/mL
MIC of antibiotic in the presence of 4 μg/ml of NAB 7061 [11]: 0.125 µg/mL
MIC of antibiotic in the presence of 4 μg/ml of NAB 7061 [12]: 0.064 µg/mL
MIC of antibiotic in the presence of 4 μg/ml of NAB 7061 [13]: 0.047 µg/mL
MIC of antibiotic in the presence of 4 μg/ml of NAB 7061 [14]: 0.094 µg/mL
MIC of antibiotic in the presence of 4 μg/ml of NAB 7061 [15]: 0.25 to 0.75 µg/mL
MIC of antibiotic in the presence of 4 μg/ml of NAB 7061 [16]: 0.047 µg/mL
MIC of antibiotic in the presence of 4 μg/ml of NAB 7061 [17]: 0.38 µg/mL
MIC of antibiotic in the presence of 4 μg/ml of NAB 7061 [18]: 64 µg/mL
MIC of antibiotic in the presence of 4 μg/ml of NAB 7061 [19]: 32 µg/mL
MIC [20]: ≤ 0.5 µg/mL
MIC of antibiotic in the presence of 4 μg/ml of NAB 7061 [21]: 96 µg/mL
MIC of antibiotic in the presence of 4 μg/ml of NAB 7061 [22]: 0.19 µg/mL
MIC of antibiotic in the presence of 4 μg/ml of NAB 7061 [23]: 0.25 µg/mL
MIC of antibiotic in the presence of NAB739 ([24]; NAB 739 0 μg/ml): 48 µg/mL
MIC of antibiotic in the presence of NAB739 ([24]; NAB 739 0.5 μg/ml): 16 µg/mL
MIC of antibiotic in the presence of NAB739 ([24]; NAB 739 1 μg/ml): 12 µg/mL
MIC of antibiotic in the presence of NAB739 ([24]; NAB 739 2 μg/ml): 3 µg/mL
MIC of antibiotic in the presence of NAB739 ([24]; NAB 739 […]): 32 µg/mL
MIC of antibiotic in the presence of 4 μg/ml of NAB 7061 [25]: 24 µg/mL
MIC of antibiotic in the presence of 4 μg/ml of NAB 7061 [26]: 64 µg/mL
MIC of antibiotic in the presence of NAB739 ([27]; NAB 739 0 μg/ml): 6 µg/mL
MIC of antibiotic in the presence of NAB739 ([27]; NAB 739 0.5 μg/ml): 0.5 µg/mL
MIC of antibiotic in the presence of NAB739 ([27]; NAB 739 1 μg/ml): 0.125 µg/mL
MIC of antibiotic in the presence of 4 μg/ml of NAB 7061 [28]: 24 µg/mL
MIC of antibiotic in the presence of 4 μg/ml of NAB 7061 [29]: 0.125 µg/mL
MIC of antibiotic in the presence of 4 μg/ml of NAB 7061 [30]: 0.094 to 0.125 µg/mL
MIC of antibiotic in the presence of 4 μg/ml of NAB 7061 [31]: 0.19 µg/mL
MIC of antibiotic in the presence of 4 μg/ml of NAB 7061 [32]: 0.75 µg/mL
MIC of antibiotic in the presence of 4 μg/ml of NAB 7061 [33]: 0.25 µg/mL
MIC of antibiotic in the presence of 4 μg/ml of NAB 7061 [34]: 24 µg/mL
MIC of antibiotic in the presence of 4 μg/ml of NAB 7061 [35]: 2 µg/mL
MIC of antibiotic in the presence of NAB739 ([36]; NAB 739 0 μg/ml): 8 µg/mL
MIC of antibiotic in the presence of NAB739 ([36]; NAB 739 0.5 μg/ml): 0.5 µg/mL
MIC of antibiotic in the presence of NAB739 ([36]; NAB 739 1 μg/ml): 0.094 µg/mL

octanoyl polymyxin B heptapeptide [Octanoyl PMBH, reference compound]
growth inhibition around a well ([37]; 4 μg of compound per well): 0 square millimeters
growth inhibition around a well ([37]; 10 μg of compound per well): 0 square millimeters
growth inhibition around a well in the presence of rifampin ([38]; rifampin 0 μg/ml): 0 square millimeters
growth inhibition around a well in the presence of rifampin ([38]; rifampin 0.1 μg/ml): 0 square millimeters
growth inhibition around a well in the presence of rifampin ([38]; rifampin 1.0 μg/ml): 38 square millimeters
concentration needed to inhibit the growth of bacteria [39]: 128 µg/mL
growth inhibition around a well in the presence of rifampin ([40]; rifampin 0 μg/ml): 0 square millimeters
growth inhibition around a well in the presence of rifampin ([40]; rifampin 0.1 μg/ml): 13 square millimeters
growth inhibition around a well in the presence of rifampin ([40]; rifampin 0.3 μg/ml): 13 square millimeters
growth inhibition around a well ([41]; 4 μg): 0 square millimeters
growth inhibition around a well ([41]; 10 μg): 13 square millimeters
